In brackets after ≈: the same amount, converted by molar mass.
Assays:
Hs68 [1] = test: Anti-HCMV activity in Hs 68 cell line by plaque reduction assay; assay type: functional, cell-based; settings: Homo sapiens
Hs68 [2] = test: Cytotoxicity in Hs 68 cell line by inhibition of cell proliferation; assay type: functional; settings: Homo sapiens

| Structure (SMILES) | IC50 (Hs68 [1]) | CC50 (Hs68 [2]) |
| --- | --- | --- |
| O=C(O)c1cc2ccncc2cn1 | 0.5 µg/mL (≈ 2.87 µM) |  |
| COc1ccccc1CNC(=O)c1ccc2ccccc2n1 | > 25 µg/mL | 10 µg/mL (≈ 34.2 µM) |

From ChEMBL document CHEMBL1131965, “Isoquinoline-6-carboxamides as potent and selective anti-human cytomegalovirus (HCMV) inhibitors” (Bioorg Med Chem Lett, 1999)
